Values joined by “and” are separate entries in the source; they are usually repeats but may differ in a detail not shown here. Equal entries are not always repeated.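 How tested: cells in 96-well plates exposed to compound for 48 hours at five concentrations. Here, GI50 denotes the concentration required for 50% inhibition of growth. TGI is the concentration that stops growth completely.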
Columns and labels:
Assay in all cases: DTP human tumour cell line panel, 48 h
ACHN renal = system: ACHN renal
HCC-2998 colon = system: HCC-2998 colon
HCT-15 colon = system: HCT-15 colon
M14 melanoma = system: M14 melanoma
MOLT-4 leukemia = system: MOLT-4 leukemia
RPMI-8226 leukemia = system: RPMI-8226 leukemia
SF-295 CNS = system: SF-295 CNS
SK-MEL-5 melanoma = system: SK-MEL-5 melanoma
SR leukemia = system: SR leukemia
UACC-257 melanoma = system: UACC-257 melanoma

SMILES	TGI (ACHN renal)	TGI (HCC-2998 colon) [µM]	TGI (HCT-15 colon) [µM]	TGI (M14 melanoma)	TGI (MOLT-4 leukemia) [µM]	TGI (RPMI-8226 leukemia) [µM]	TGI (SF-295 CNS)	TGI (SK-MEL-5 melanoma)	TGI (SR leukemia) [µM]	TGI (UACC-257 melanoma) [µM]	GI50 (ACHN renal)	GI50 (HCC-2998 colon) [µM]	GI50 (HCT-15 colon)	GI50 (M14 melanoma)	GI50 (MOLT-4 leukemia)	GI50 (RPMI-8226 leukemia)	GI50 (SF-295 CNS)	GI50 (SK-MEL-5 melanoma)	GI50 (SR leukemia)	GI50 (UACC-257 melanoma)
COc1ccc(C2ON(c3cccc(C)n3)CC=C2C)cc1 (centres undefined)	> 100 µM	> 100	> 100	> 100 µM	> 100	> 100	> 100 µM	33.3 µM	99.2	> 100										
Cn1cc(C(=O)C[n+]2ccccc2)c2ccccc21	> 100 µM	> 100	> 100	> 100 µM	> 100	> 100	> 100 µM	> 100 µM	> 100	> 100										
COC(=O)CC[C@H](Cc1ccccc1)NC(=O)c1csc([C@@H](C[C@H](C(C)C)N(C)C(=O)[C@@H](NC(=O)[C@H]2CCCCN2C)C(C)C)OC(C)=O)n1	21.4 µM	> 25	> 25	> 25 µM	10.5	> 25	> 25 µM	0.0984 µM	> 8.5	> 25	0.013 µM	0.00386	0.00685 µM	< 0.0025 µM	< 0.0025 µM	< 0.0025 µM	< 0.0025 µM	< 0.0025 µM	< 0.0025 µM	> 25 µM
N#C/C(=C\c1ccc(Br)cc1)n1nnc2ccc(F)cc21	2.06 µM	2.89	1.78	1.69 µM	> 100	6.96	5.07 µM	2.94 µM	> 100	4.25	0.671 µM	1.43	0.353 µM	0.385 µM	2.18 µM	0.841 µM	2.11 µM	1.57 µM	0.348 µM	1.42 µM
COc1cc(Nc2ncc(F)c(Nc3ccc4c(n3)N(COP(=O)(O)O)C(=O)C(C)(C)O4)n2)cc(OC)c1OC	12.2 µM and > 10 µM	> 100	> 100	29.4 µM and > 10 µM	> 62	> 31.3	7.55 µM and 8.7 µM	33.3 µM and > 10 µM	> 36.5	> 90.7	1.12 µM and 1.21 µM	16.4	2.45 µM and 3.22 µM	2.71 µM and 2.88 µM	3.54 µM and 3.05 µM	3.55 µM and 4.34 µM	1.39 µM and 1.17 µM	5.51 µM and 3.54 µM	2.93 µM and 2.97 µM	10.6 µM and 5.57 µM
CN(C)CC/[N+]([O-])=C(/c1ccccc1)C12CC3CC(CC(C3)C1)C2	29.8 µM	37.6	38.8	26.8 µM	34.1	42.7	27.5 µM	32 µM	43.9	29.9										
CCCCCCCc1cc2c3c(nc4ccccc42)C(=O)c2cccnc2-c3n1	8.19 µM	7.56	5.58	6.9 µM	> 20.2	12.6	7.32 µM	8.37 µM	10.7	3.46	4.08 µM	2.93	0.97 µM	2.5 µM	1.54 µM	4.27 µM	3.45 µM	4.16 µM	3.02 µM	1.96 µM
Cn1cc(-c2ccc(-c3ccc(C4=NC5(CC5)C(=O)N4C[C@@H]4CCN(C(=O)C5CC5)C4)cc3)cc2)cn1	> 100 µM	29.9	43	> 100 µM	80.8	19.7	29.2 µM	15.2 µM	95.3	> 100	14.3 µM	15.2	2.71 µM	20.2 µM	4.31 µM	0.0883 µM	10.8 µM	2.46 µM	1.68 µM	39.3 µM
O=C(O)CCc1nn2c(nc1=O)sc1ccc3ccccc3c12	> 100 µM	> 100	> 100	> 100 µM	> 100	> 100	> 100 µM	> 100 µM	> 100	> 100										
Cc1cnc(C(=O)NNc2nc3sc4c(c3c(=O)n2C)C(C)CCC4)cn1 (centres undefined)	2.02 µM	6.22	11.8	2.43 µM		> 20	3.91 µM	1.72 µM	> 100	4.34	0.308 µM	0.529	0.268 µM	0.284 µM	0.346 µM	0.357 µM	0.384 µM	0.363 µM	0.237 µM	0.353 µM
Cc1ncc(C(=O)Nc2ccc(CN3CCN(C)CC3)c(C(F)(F)F)c2)cc1C#Cc1cnc(N)cc1C#N	2 µM	3.39	2.71	0.4 µM	3.16	3.5	3.98 µM	2.76 µM	6.27	3.12	0.189 µM	1.11	0.548 µM	0.049 µM	0.336 µM	0.338 µM	1.88 µM	0.711 µM	0.406 µM	0.288 µM
C=CCC1C(=O)CC2(C)CC(=O)C(CC=C)C12C (centres undefined)	> 100 µM	> 100	> 100	> 100 µM	> 100	> 100	> 100 µM	> 100 µM	> 100	> 100										
CCCSS[C@H]1NC(=O)[C@H]1NC(=O)COc1ccccc1	30.2 µM	29.9	24.9	24.4 µM	13.2	88.1	> 100 µM	54.9 µM	19.6	27.8										

Reference: PubChem BioAssay (NCI)
